Measurements reported in patent US20260274892A1, “MACROCYCLIC BROAD SPECTRUM ANTIBIOTICS” (RQx Pharmaceuticals, Inc., priority 2017, published 2026).

Experiments:
[1] = tested on: Methicillin Resistant Staphylococcus aureus strain USA 200; assay: Minimum inhibitory concentration (MIC), CLSI broth micro-dilution, S. aureus; assay type: cell-based; conditions: Staphylococcus aureus, MRSA / USA200; Table 6; MRSA USA 200; cation adjusted Mueller Hinton Broth + 0.002% Tween-80; 35° C., 22 hours
How it was run: (§1)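 Antibacterial potency is measured as MIC by the CLSI broth dilution method. Bacteria at OD600 0.0005 in Tween-80-supplemented cation-adjusted Mueller Hinton broth face ten twofold compound dilutions for 22 h at 35° C.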

[2] = tested on: Escherichia coli ATCC 25922; assay: Minimum inhibitory concentration (MIC), CLSI broth micro-dilution, E. coli; assay type: cell-based; conditions: Escherichia coli, ATCC25922, 22 h, Table 6, cation adjusted Mueller Hinton Broth + 0.002% Tween-80, 35° C.
How it was run: as §1

MIC [1] | MIC [2] | Compound
0.027 µM | 5.4 µM | Cc1nc(-c2ccc(C(C)(C)C)cc2)ncc1C(=O)N[C@@H](CNC(=N)N)C(=O)N(C)[C@@H]1C(=O)N[C@@H](C)C(=O)N[C@H](C(=O)NCC#N)Cc2ccc(OCCN)c(c2)-c2cc1ccc2OCCN (racemic) [Compound 462, rac-(8S,11S,14S)-3,18-bis(2-aminoethoxy)-N-(cyanomethyl)-11-methyl-14-[methyl-[rac-(2S)-2-[[2-(4-tert-butylphenyl)-4-methyl-pyrimidine-5-carbonyl]amino]-3-guanidino-propanoyl]amino]-10,13-dioxo-9,12-diazatricyclo[13.3.1.12,6]icosa-1(18),2(20),3,5,15(19),16-hexaene-8-carboxamide]
0.016 µM | 0.094 µM | Cc1nc(-c2ccc3c(c2)CCC3(C)C)nc(C)c1C(=O)N[C@@H](CCN)C(=O)N(C)[C@@H]1C(=O)N[C@@H](C)C(=O)N[C@H](C(=O)NCC#N)Cc2ccc(OCCN)c(c2)-c2cc1ccc2OCCN (racemic) [Compound 269, rac-(8S,11S,14S)-3,18-bis(2-aminoethoxy)-N-(cyanomethyl)-11-methyl-14-[methyl-[rac-(2S)-4-amino-2-[[2-(1,1-dimethylindan-5-yl)-4,6-dimethyl-pyrimidine-5-carbonyl]amino]butanoyl]amino]-10,13-dioxo-9,12-diazatricyclo[13.3.1.12,6]icosa-1(18),2(20),3,5,15(19),16-hexaene-8-carboxamide]
0.025 µM | 0.26 µM | Cc1nc(-c2ccc3c(c2)CCCC3)nc(C)c1C(=O)N[C@@H](CCN)C(=O)N(C)[C@@H]1C(=O)N[C@@H](C)C(=O)N[C@H](C(=O)NCC#N)Cc2ccc(OCCN)c(c2)-c2cc1ccc2OCCN (racemic) [Compound 259, rac-(8S,11S,14S)-3,18-bis(2-aminoethoxy)-N-(cyanomethyl)-11-methyl-14-[methyl-[rac-(2S)-4-amino-2-[(4,6-dimethyl-2-tetralin-6-yl-pyrimidine-5-carbonyl)amino]butanoyl]amino]-10,13-dioxo-9,12-diazatricyclo[13.3.1.12,6]icosa-1(18),2(20),3,5,15(19),16-hexaene-8-carboxamide]
0.047 µM | 0.76 µM | CCCCCc1ccc(-c2ncc(C(=O)N[C@@H](CCNC(N)=O)C(=O)N(C)[C@@H]3C(=O)N[C@@H](C)C(=O)N[C@H](C(=O)NCC#N)Cc4ccc(OCCN)c(c4)-c4cc3ccc4OCCN)c(C)n2)cc1 (racemic) [Compound 451, rac-(8S,11S,14S)-3,18-bis(2-aminoethoxy)-N-(cyanomethyl)-11-methyl-14-[methyl-[rac-(2S)-2-[[4-methyl-2-(4-pentylphenyl)pyrimidine-5-carbonyl]amino]-4-ureido-butanoyl]amino]-10,13-dioxo-9,12-diazatricyclo[13.3.1.12,6]icosa-1(18),2(20),3,5,15(19),16-hexaene-8-carboxamide]
0.043 µM | 0.35 µM | Cc1nc(-c2ccc3c(c2)CCC(C)(C)O3)ncc1C(=O)N[C@@H](CCN)C(=O)N(C)[C@@H]1C(=O)N[C@@H](C)C(=O)N[C@H](C(=O)NCC#N)Cc2ccc(OCCN)c(c2)-c2cc1ccc2OCCN (racemic) [Compound 249, rac-(8S,11S,14S)-3,18-bis(2-aminoethoxy)-N-(cyanomethyl)-11-methyl-14-[methyl-[rac-(2S)-4-amino-2-[[2-(2,2-dimethylchroman-6-yl)-4-methyl-pyrimidine-5-carbonyl]amino]butanoyl]amino]-10,13-dioxo-9,12-diazatricyclo[13.3.1.12,6]icosa-1(18),2(20),3,5,15(19),16-hexaene-8-carboxamide]
0.012 µM | 0.065 µM | CC(C)=C(C)c1ccc(-c2nc(C)c(C(=O)N[C@@H](CCN)C(=O)N(C)[C@@H]3C(=O)N[C@@H](C)C(=O)N[C@H](C(=O)NCC#N)Cc4ccc(OCCN)c(c4)-c4cc3ccc4OCCN)c(C)n2)cc1 (racemic) [Compound 272, rac-(8S,11S,14S)-3,18-bis(2-aminoethoxy)-N-(cyanomethyl)-11-methyl-14-[methyl-[rac-(2S)-4-amino-2-[[2-[4-(1,2-dimethylprop-1-enyl)phenyl]-4,6-dimethyl-pyrimidine-5-carbonyl]amino]butanoyl]amino]-10,13-dioxo-9,12-diazatricyclo[13.3.1.12,6]icosa-1(18),2(20),3,5,15(19),16-hexaene-8-carboxamide]
0.023 µM | 0.38 µM | C[C@@H]1NC(=O)[C@@H](N(C)C(=O)[C@H](CCN)NC(=O)c2ccc(-c3ccc(C(C)(C)C)cc3)cc2N)c2ccc(OCCN)c(c2)-c2cc(ccc2OCCN)C[C@@H](C(=O)NCC#N)NC1=O (racemic) [Compound 372, rac-(8S,11S,14S)-3,18-bis(2-aminoethoxy)-N-(cyanomethyl)-11-methyl-14-[methyl-[rac-(2S)-4-amino-2-[[2-amino-4-(4-tert-butylphenyl)benzoyl]amino]butanoyl]amino]-10,13-dioxo-9,12-diazatricyclo[13.3.1.12,6]icosa-1(18),2(20),3,5,15(19),16-hexaene-8-carboxamide]
0.094 µM | 0.38 µM | Cc1nc(-c2ccc(C(C)(C)C)cc2)c(O)cc1C(=O)N[C@@H](CCN)C(=O)N(C)[C@@H]1C(=O)N[C@@H](C)C(=O)N[C@H](C(=O)NCC#N)Cc2ccc(OCCN)c(c2)-c2cc1ccc2OCCN (racemic) [Compound 404, rac-(8S,11S,14S)-3,18-bis(2-aminoethoxy)-N-(cyanomethyl)-11-methyl-14-[methyl-[rac-(2S)-4-amino-2-[[6-(4-tert-butylphenyl)-5-hydroxy-2-methyl-pyridine-3-carbonyl]amino]butanoyl]amino]-10,13-dioxo-9,12-diazatricyclo[13.3.1.12,6]icosa-1(18),2(20),3,5,15(19),16-hexaene-8-carboxamide]
0.13 µM | 4 µM | C[C@@H]1NC(=O)[C@@H](N(C)C(=O)[C@H](CCN)NC(=O)C2CCN(c3ccc(C(C)(C)C)cc3)CC2)c2ccc(OCCN)c(c2)-c2cc(ccc2OCCN)C[C@@H](C(=O)NCC#N)NC1=O (racemic) [Compound 389, rac-(8S,11S,14S)-3,18-bis(2-aminoethoxy)-N-(cyanomethyl)-11-methyl-14-[methyl-[rac-(2S)-4-amino-2-[[1-(4-tert-butylphenyl)piperidine-4-carbonyl]amino]butanoyl]amino]-10,13-dioxo-9,12-diazatricyclo[13.3.1.12,6]icosa-1(18),2(20),3,5,15(19),16-hexaene-8-carboxamide]
0.017 µM | 0.27 µM | Cc1nc(-c2ccc(C(C)(C)C)cc2)nnc1C(=O)N[C@@H](CCN)C(=O)N(C)[C@@H]1C(=O)N[C@@H](C)C(=O)N[C@H](C(=O)NCC#N)Cc2ccc(OCCN)c(c2)-c2cc1ccc2OCCN (racemic) [Compound 385, rac-(8S,11S,14S)-3,18-bis(2-aminoethoxy)-N-(cyanomethyl)-11-methyl-14-[methyl-[rac-(2S)-4-amino-2-[[3-(4-tert-butylphenyl)-5-methyl-1,2,4-triazine-6-carbonyl]amino]butanoyl]amino]-10,13-dioxo-9,12-diazatricyclo[13.3.1.12,6]icosa-1(18),2(20),3,5,15(19),16-hexaene-8-carboxamide]
0.016 µM | 0.75 µM | Cc1nc(C(F)(F)c2ccc(C(C)(C)C)cc2)nc(C)c1C(=O)N[C@@H](CCN)C(=O)N(C)[C@@H]1C(=O)N[C@@H](C)C(=O)N[C@H](C(=O)NCC#N)Cc2ccc(OCCN)c(c2)-c2cc1ccc2OCCN (racemic) [Compound 289, rac-(8S,11S,14S)-3,18-bis(2-aminoethoxy)-N-(cyanomethyl)-11-methyl-14-[methyl-[rac-(2S)-4-amino-2-[[2-[(4-tert-butylphenyl)-difluoro-methyl]-4,6-dimethyl-pyrimidine-5-carbonyl]amino]butanoyl]amino]-10,13-dioxo-9,12-diazatricyclo[13.3.1.12,6]icosa-1(18),2(20),3,5,15(19),16-hexaene-8-carboxamide]
0.094 µM | 3 µM | C[C@@H]1NC(=O)[C@@H](N(C)C(=O)[C@H](CCN)NC(=O)c2cc(N)c(-c3ccc(C(C)(C)C)cc3)nc2N)c2ccc(OCCN)c(c2)-c2cc(ccc2OCCN)C[C@@H](C(=O)NCC#N)NC1=O (racemic) [Compound 416, rac-(8S,11S,14S)-3,18-bis(2-aminoethoxy)-N-(cyanomethyl)-11-methyl-14-[methyl-[rac-(2S)-4-amino-2-[[2,5-diamino-6-(4-tert-butylphenyl)pyridine-3-carbonyl]amino]butanoyl]amino]-10,13-dioxo-9,12-diazatricyclo[13.3.1.12,6]icosa-1(18),2(20),3,5,15(19),16-hexaene-8-carboxamide]

Compound | MIC [1] | MIC [2]
Cc1nc(-c2ccc(C(C)(C)C)cc2)nc(C)c1C(=O)N[C@@H](CCN)C(=O)N(C)[C@@H]1C(=O)N[C@@H](C)C(=O)N[C@H](C(=O)NCC#N)Cc2ccc(OCCCCN)c(c2)-c2cc1ccc2OCCCCN (racemic) [Compound 437, rac-(8S,11S,14S)-3,18-bis(4-aminobutoxy)-N-(cyanomethyl)-11-methyl-14-[methyl-[rac-(2S)-4-amino-2-[[2-(4-tert-butylphenyl)-4,6-dimethyl-pyrimidine-5-carbonyl]amino]butanoyl]amino]-10,13-dioxo-9,12-diazatricyclo[13.3.1.12,6]icosa-1(18),2(20),3,5,15(19),16-hexaene-8-carboxamide] | 0.031 µM | 0.38 µM
